For data set [1] the following is noted: bacteroides thetaiotaomicron, 12 h, 2 µM.
Description: The drug is tested on Bacteroides thetaiotaomicron strain: VPI-5482 for biotransformation. The drug concentrations were measured before and after a 12-h incubation by liquid-chromatography-coupled mass spectrometry (LC–MS)
A short description of data set [2]: The drug is tested on Bacteroides pectinophilus strain: ATCC43243 for biotransformation. The drug concentrations were measured before and after a 12-h incubation by liquid-chromatography-coupled mass spectrometry (LC–MS). The following applies: 2 µM.
A short description of data set [3]: The drug is tested on Eggerthella lenta strain: ATCC25559 for biotransformation. The drug concentrations were measured before and after a 12-h incubation by liquid-chromatography-coupled mass spectrometry (LC–MS). To be noted: 2 µM.
The conditions of data set [4]: victivallis vadensis, 12 h, 2 µM.
Description: The drug is tested on Victivallis vadensis strain: ATCC BAA-548 for biotransformation. The drug concentrations were measured before and after a 12-h incubation by liquid-chromatography-coupled mass spectrometry (LC–MS)
For data set [5] the following is noted: akkermansia muciniphila, 12 h, 2 µM.
Description: The drug is tested on Akkermansia muciniphila strain: ATCC BAA-835 for biotransformation. The drug concentrations were measured before and after a 12-h incubation by liquid-chromatography-coupled mass spectrometry (LC–MS)
For data set [6] the following is noted: enterocloster bolteae, 12 h, 2 µM.
Description: The drug is tested on Clostridium bolteae strain: ATCCBAA-613 for biotransformation. The drug concentrations were measured before and after a 12-h incubation by liquid-chromatography-coupled mass spectrometry (LC–MS)
Data set [7] can be described thus: The drug is tested on Bifidobacterium longum subsp. Infantis strain: CCUG52486 for biotransformation. The drug concentrations were measured before and after a 12-h incubation by liquid-chromatography-coupled mass spectrometry (LC–MS). To be noted: 2 µM.

Take `CCN(CC)C(=O)C1(c2ccccc2)CC1CN` (stereo unspecified): the “Bacterial Biotransformation” value in data set [1], in data set [2], in data set [3], in data set [4], in data set [5] and in data set [6] was “Compound NOT metabolized” throughout. Moreover, the “Bacterial Biotransformation” value in data set [7] is reported as “Compound NOT metabolized”.
As to `Cc1nc(Nc2ncc(C(=O)Nc3c(C)cccc3Cl)s2)cc(N2CCN(CCO)CC2)n1.O` [DASATINIB], the “Bacterial Biotransformation” value is recorded as “Compound NOT metabolized” in data set [1]; “Compound NOT metabolized” in data set [2]; “Compound NOT metabolized” in data set [3]; “Compound NOT metabolized” in data set [4]; “Compound metabolized” in data set [5]; “Compound metabolized” in data set [6]. In data set [7], the “Bacterial Biotransformation” value is “Compound NOT metabolized”.
Take `CN(C)CCOC(C)(c1ccccc1)c1ccccn1.O=C(O)CCC(=O)O` (stereo unspecified) [DOXYLAMINE SUCCINATE]: the “Bacterial Biotransformation” value in data set [1], in data set [2], in data set [4], in data set [5], in data set [6] and in data set [7] was “Compound NOT metabolized” in each case.
Consider `CN1CCN(C(=O)O[C@H]2c3nccnc3C(=O)N2c2ccc(Cl)cn2)CC1` [ESZOPICLONE], for which the “Bacterial Biotransformation” value is “Compound NOT metabolized” in data set [1]; “Compound NOT metabolized” in data set [2]; “Compound NOT metabolized” in data set [3]; “Compound NOT metabolized” in data set [4]; “Compound metabolized” in data set [6]; “Compound metabolized” in data set [7].
Turning to `CC(C)(C)NC(=O)[C@H]1CC[C@H]2[C@@H]3CC[C@H]4NC(=O)C=C[C@]4(C)[C@H]3CC[C@]12C` [FINASTERIDE], the “Bacterial Biotransformation” value in data set [1] is on record as “Compound NOT metabolized”; in data set [2], “Compound NOT metabolized”; in data set [4], “Compound NOT metabolized”; in data set [5], “Compound metabolized”; in data set [6], “Compound NOT metabolized”; in data set [7] it was “Compound NOT metabolized”.
With `OCCN1CCN(CCCN2c3ccccc3Sc3ccc(C(F)(F)F)cc32)CC1` [FLUPHENAZINE], the “Bacterial Biotransformation” value is “Compound metabolized” in data set [1]; “Compound NOT metabolized” in data set [2]; “Compound NOT metabolized” in data set [3]; “Compound NOT metabolized” in data set [4]; “Compound NOT metabolized” in data set [5]; “Compound NOT metabolized” in data set [6]. Further, in data set [7], the “Bacterial Biotransformation” value is listed as “Compound NOT metabolized”.
With `Cc1ccc(S(=O)(=O)NC(=O)NN2CC3CCCC3C2)cc1` (stereo unspecified) [GLICLAZIDE], the “Bacterial Biotransformation” value in data set [1], in data set [2], in data set [3], in data set [4], in data set [5] and in data set [6] was “Compound NOT metabolized” throughout. Further, the “Bacterial Biotransformation” value in data set [7] was “Compound NOT metabolized”.
Regarding `COC1=C(OC)C(=O)C(CCCCCCCCCCO)=C(C)C1=O` [IDEBENONE], the “Bacterial Biotransformation” value in data set [1] is “Compound NOT metabolized”; in data set [2] it was “Compound NOT metabolized”; in data set [3], “Compound NOT metabolized”; in data set [4] it was “Compound NOT metabolized”; in data set [5] it was “Compound NOT metabolized”; in data set [6], “Compound metabolized”. For the same compound, the “Bacterial Biotransformation” value in data set [7] is reported as “Compound metabolized”.
With `CC1Cc2ccccc2N1NC(=O)c1ccc(Cl)c(S(N)(=O)=O)c1` (stereo unspecified) [INDAPAMIDE], the “Bacterial Biotransformation” value in data set [1], in data set [2], in data set [4], in data set [5], in data set [6] and in data set [7] was “Compound NOT metabolized” each time.
With `COc1ccc2c(c1)c(CC(=O)O)c(C)n2C(=O)c1ccc(Cl)cc1` [INDOMETHACIN], the “Bacterial Biotransformation” value is “Compound metabolized” in data set [1]; “Compound metabolized” in data set [2]; “Compound NOT metabolized” in data set [3]; “Compound NOT metabolized” in data set [4]; “Compound metabolized” in data set [5]; “Compound metabolized” in data set [6]. Besides, the “Bacterial Biotransformation” value in data set [7] is reported as “Compound metabolized”.
Turning to `CCC(C)n1ncn(-c2ccc(N3CCN(c4ccc(OCC5COC(Cn6cncn6)(c6ccc(Cl)cc6Cl)O5)cc4)CC3)cc2)c1=O` (stereo unspecified) [ITRACONAZOLE], the “Bacterial Biotransformation” value in data set [1], in data set [2], in data set [3], in data set [4], in data set [5] and in data set [6] was “Compound NOT metabolized” throughout. Moreover, the “Bacterial Biotransformation” value in data set [7] is “Compound NOT metabolized”.
Regarding `N#Cc1ccc(C(c2ccc(C#N)cc2)n2cncn2)cc1` [LETROZOLE], the “Bacterial Biotransformation” value in data set [1], in data set [2], in data set [4], in data set [5], in data set [6] and in data set [7] was “Compound NOT metabolized” in each case.
Turning to `CN1CCN(C2=Nc3ccccc3Oc3ccc(Cl)cc32)CC1.O=C(O)CCC(=O)O` [LOXAPINE SUCCINATE], the “Bacterial Biotransformation” value in data set [1], in data set [2], in data set [3], in data set [4], in data set [5] and in data set [6] was “Compound NOT metabolized” each time. The “Bacterial Biotransformation” value in data set [7] is “Compound NOT metabolized”.
Regarding `COc1ccccc1OCC(O)COC(N)=O` (stereo unspecified) [METHOCARBAMOL], the “Bacterial Biotransformation” value in data set [1], in data set [3], in data set [4], in data set [5], in data set [6] and in data set [7] was “Compound NOT metabolized” throughout.
`C=CCN1CC[C@]23c4c5ccc(O)c4O[C@H]2C(=O)CC[C@@]3(O)[C@H]1C5` [NALOXONE]: the “Bacterial Biotransformation” value in data set [1] is “Compound metabolized”; in data set [2] it was “Compound NOT metabolized”; in data set [3], “Compound metabolized”; in data set [4], “Compound NOT metabolized”; in data set [5], “Compound metabolized”; in data set [6], “Compound NOT metabolized”. Moreover, in data set [7], the “Bacterial Biotransformation” value is on record as “Compound NOT metabolized”.
In the case of `CO[C@]12C[C@@H](COC(=O)c3cncc(Br)c3)CN(C)[C@@H]1Cc1cn(C)c3cccc2c13` [NICERGOLINE], the “Bacterial Biotransformation” value in data set [1], in data set [2], in data set [3], in data set [4], in data set [5] and in data set [7] was “Compound NOT metabolized” each time.
On to `NC(=O)N1c2ccccc2CC(=O)c2ccccc21` [OXCARBAZEPINE], for which the “Bacterial Biotransformation” value is on record as “Compound metabolized” in data set [2]; “Compound metabolized” in data set [3]; “Compound NOT metabolized” in data set [4]; “Compound metabolized” in data set [5]; “Compound NOT metabolized” in data set [6]; “Compound metabolized” in data set [7].
`CN(C(=O)CN(CCO)CC(=O)N(C)C(C)(C)Cc1ccccc1)C(C)(C)Cc1ccccc1` [OXETHAZAINE]: the “Bacterial Biotransformation” value in data set [1], in data set [3], in data set [4], in data set [5] and in data set [7] was “Compound NOT metabolized” each time.
For the compound `CCN(CC)CC#CCOC(=O)C(O)(c1ccccc1)C1CCCCC1.Cl` (stereo unspecified) [OXYBUTYNIN CHLORIDE], the “Bacterial Biotransformation” value in data set [1], in data set [3] and in data set [4] was “Compound NOT metabolized” throughout.
As for `CCCN1C[C@H](CSC)C[C@@H]2c3cccc4[nH]cc(c34)C[C@H]21.CS(=O)(=O)O` [PERGOLIDE MESYLATE], the “Bacterial Biotransformation” value in data set [1], in data set [2], in data set [3], in data set [4], in data set [6] and in data set [7] was “Compound NOT metabolized” throughout.
Take `CC(C)(C)N.CCC[C@H](N[C@@H](C)C(=O)N1[C@H](C(=O)O)C[C@@H]2CCCC[C@@H]21)C(=O)OCC` [PERINDOPRIL ERBUMINE]: the “Bacterial Biotransformation” value in data set [1], in data set [2], in data set [4], in data set [5], in data set [6] and in data set [7] was “Compound NOT metabolized” each time.

The record behind these values is ChEMBL document CHEMBL5303573, “Mapping human microbiome drug metabolism by gut bacteria and their genes” (Nature, 2019).
